{
  "source": "patent US11185594B2",
  "about": "“(Anti-HER2 antibody)-drug conjugate” (DAIICHI SANKYO COMPANY, LIMITED, priority 2014, dated 2021)",
  "origin": "cited, not measured here",
  "key": {"[1]": {"biological_target": "T1, topoisomerase I (Homo sapiens, UniProt P11387)", "T1 sequence (P11387 1-765)": "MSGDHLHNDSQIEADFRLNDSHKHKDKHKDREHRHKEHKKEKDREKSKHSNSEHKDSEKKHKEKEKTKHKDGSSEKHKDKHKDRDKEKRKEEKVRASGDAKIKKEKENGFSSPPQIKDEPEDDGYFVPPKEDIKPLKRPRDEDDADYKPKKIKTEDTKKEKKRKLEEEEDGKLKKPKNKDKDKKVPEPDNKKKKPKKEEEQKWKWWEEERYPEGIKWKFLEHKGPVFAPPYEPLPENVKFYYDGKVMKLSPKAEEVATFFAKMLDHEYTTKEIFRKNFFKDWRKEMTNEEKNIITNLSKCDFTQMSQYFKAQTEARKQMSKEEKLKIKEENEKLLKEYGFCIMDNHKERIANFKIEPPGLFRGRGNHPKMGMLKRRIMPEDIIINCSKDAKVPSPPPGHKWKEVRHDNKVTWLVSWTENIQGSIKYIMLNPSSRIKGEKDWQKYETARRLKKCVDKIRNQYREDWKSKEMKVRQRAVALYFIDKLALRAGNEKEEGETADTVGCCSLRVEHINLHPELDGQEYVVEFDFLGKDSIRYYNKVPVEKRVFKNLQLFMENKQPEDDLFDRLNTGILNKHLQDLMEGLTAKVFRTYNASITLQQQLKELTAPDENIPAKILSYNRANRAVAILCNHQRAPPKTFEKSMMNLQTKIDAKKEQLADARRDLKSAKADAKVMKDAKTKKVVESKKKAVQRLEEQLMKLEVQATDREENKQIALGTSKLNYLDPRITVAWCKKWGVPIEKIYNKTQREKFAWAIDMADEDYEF", "conditions": "compared with SN-38 and topotecan"}, "[2]": {"tested_on": "various cancer cells"}, "[3]": {"tested_on": "human tumor", "conditions": "human tumor subcutaneously transplanted mouse model"}},
  "data": [
    {"smiles": "CC[C@@]1(O)C(=O)OCc2c1cc1n(c2=O)Cc2c-1nc1cc(F)c(C)c3c1c2[C@@H](N)CC3", "note": "[exatecan, (1S,9S)-1-amino-9-ethyl-5-fluoro-2,3-dihydro-9-hydroxy-4-methyl-1H,12H-benzo[de]pyrano[3′,4′:6,7]indolizino[1,2-b]quinoline-10,13(9H,15H)-dione]", "values": [
      {"measurement": "inhibitory activity on topoisomerase I", "setting": "[1]", "result": "higher than SN-38"},
      {"measurement": "in vitro cytocidal activity", "setting": "[2]; against various cancer cells", "result": "higher in vitro cytocidal activity was confirmed"},
      {"measurement": "effect against resistant cancer cells", "setting": "[2]; cancer cells resistant to SN-38 or the like due to expression of P-glycoprotein", "result": "confirmed to have the effect"},
      {"measurement": "antitumor effect", "setting": "[3]", "result": "potent antitumor effect"}
    ]}
  ]
}
